Measurements published in patent publication US20230146239A1 (THE SCRIPPS RESEARCH INSTITUTE, priority 2020, published 2023).
Values after ≈ are worked out from the molar mass of the structure shown. Read-outs that look alike come from different tables or passages of the source.

Tests used:
[1] = tested on: VanA E. faecalis (BM 4166); assay: In vitro antimicrobial microdilution assay (MIC); format: cell-based, Enterococcus faecalis
Source text: (§2) The lowest concentration of antibiotic (in μg/mL) capable of eliminating cell growth in the wells is the reported MIC value.

[2] = tested on: VanA E. faecium (ATCC BAA-2317); assay: In vitro antimicrobial microdilution assay (MIC); format: cell-based, Enterococcus faecium
Source text: as §2

[3] = tested on: VanA E. faecalis (ATCC BAA-2573); assay: In vitro antimicrobial microdilution assay (MIC); format: cell-based, Enterococcus faecalis
Source text: as §2

[4] = tested on: VanA E. faecium (TX2465); assay: In vitro antimicrobial microdilution assay (MIC); format: cell-based, Enterococcus faecium
Source text: as §2

[5] = tested on: VanB E. faecalis ATCC 51299; assay: microbe, parasite or virus in culture; format: cell-based, Enterococcus faecalis; details: for MIC: Enterococcus faecalis, ATCC51299, read-out: MIC, VanB E. faecalis ATCC 51299
Source text: as §2

[6] = tested on: Sensitive S. aureus ATCC 25923; assay: In vitro antimicrobial microdilution assay (MIC); format: cell-based, Staphylococcus aureus
Source text: as §2

[7] = tested on: MRSA S. aureus ATCC 43300; assay: microbe, parasite or virus in culture; format: cell-based, Staphylococcus aureus; details: for MIC: Staphylococcus aureus, read-out: MIC, MRSA S. aureus ATCC 43300
Source text: as §2

[8] = tested on: VanA VRE E. faecalis (BM 4166); assay: Impact of added LTA, phosphate, POPE on antimicrobial activity (MIC); format: cell-based, Enterococcus faecalis; details: for decrease of antimicrobial activity by added LTA: 100 μg/mL LTA, both VanA VRE strains
Method: (§1) When NaH2PO4 or POPE was used instead of LTA, 10% brain-heart infusion broth containing 0.002% Tween®-80 with 100 μg/mL NaH2PO4 or 100 μg/mL POPE was used as the culture medium used for serial dilution. When additional G3 (H2N^+(CH2)3NHC(NH2)═NH2^+.2TFA) or Mg^2+ was used, 10% brain-heart infusion broth containing 0.002% Tween®-80 with 100 μg/mL G3 or 100 μg/mL MgCl2 and 100 μg/mL lipoteichoic acid was used as the culture medium for serial dilution of study group, 10% brain-heart infusion broth containing 0.002% Tween®-80 with 100 μg/mL G3 was used as the culture medium for serial dilution of control group.

[9] = tested on: VanA VRE E. faecium (ATCC BAA2317); assay: organism not typed; format: cell-based, Enterococcus faecium
Method: as §1

[10] = tested on: VanA E. faecalis BM 4166 or ATCC BAA-2573; assay: microbe, parasite or virus in culture; format: cell-based; details: Enterococcus faecalis, ATCCBAA2573, read-out: MIC, VanA E. faecalis
Source text: as §2

[11] = tested on: VanA VRE E. faecalis BM 4166 and E. faecium ATCC BAA-2317; format: cell-based, Enterococcus faecalis, Enterococcus faecium; details: 10 μM added at 5 minutes
Method: The above bacterial solution was subjected to a subculture to obtain fresh mid-log phase bacterial cells (incubation time=6 hours). The bacterial suspension was diluted to a total volume of 7 mL with OD600=0.6.
After the cultured bacteria were harvested (3000 rpm, 4° C., 20 minutes), the white bacterial precipitate was washed and resuspended in 5 mM glucose and 5 mM HEPES buffer (1:1, 5.00 mL, pH=7.2).

[12] = tested on: VanA VRSA strain VRS2 (S. aureus); details: mouse, in vivo; cited from earlier work
[13] = mice, earlier studies; cited from earlier work
[14] = mice, cited from earlier work; for AUC / CL / Cmax / Vd / t1/2 / tmax: iv, earlier study

With `CN[C@H](CC(C)C)C(=O)N[C@H]1C(=O)N[C@@H](CC(N)=O)C(=O)N[C@H]2C(=O)N[C@H]3C(=O)N[C@H](C(=O)N[C@H](C(=O)O)c4cc(O)cc(O)c4-c4cc3ccc4O)[C@H](O)c3ccc(c(Cl)c3)Oc3cc2cc(c3O[C@@H]2O[C@H](CO)[C@@H](O)[C@H](O)[C@H]2O[C@H]2C[C@](C)(N)[C@H](O)[C@H](C)O2)Oc2ccc(cc2Cl)[C@H]1O` [Compound 1, vancomycin] the MIC ([1]; Enterococcus faecalis, read-out: MIC, VanA E. faecalis BM 4166) was 250 µg/mL (≈ 173 µM), the MIC ([2]; Enterococcus faecium, ATCCBAA2317, read-out: MIC, VanA E. faecium ATCC BAA-2317) was 250 µg/mL (≈ 173 µM) and the MIC ([3]; Enterococcus faecalis, ATCCBAA2573, read-out: MIC, VanA E. faecalis ATCC BAA-2573) was 125 µg/mL (≈ 86.3 µM). For the same compound, the MIC [4] was 250 µg/mL (≈ 173 µM), the MIC ([4]; Enterococcus faecium, read-out: MIC, VanA E. faecium TX2465) was 250 µg/mL (≈ 173 µM) and the MIC [5] was 8 µg/mL (≈ 5.52 µM). For the same compound, the MIC ([6]; Staphylococcus aureus, ATCC25923, read-out: MIC, Sensitive S. aureus ATCC 25923) was 0.5 µg/mL (≈ 0.345 µM), the MIC [7] was 0.5 µg/mL (≈ 0.345 µM) and the “decrease of antimicrobial activity by added LTA” value [8] was “no difference”. It also gave an MIC ([8]; read-out: MIC, +LTA) of 250 µg/mL (≈ 173 µM), an MIC ([8]; read-out: MIC, −LTA) of 250 µg/mL (≈ 173 µM) and an MIC ([9]; read-out: MIC, +LTA) of 250 µg/mL (≈ 173 µM). The MIC ([9]; read-out: MIC, −LTA) was 250 µg/mL (≈ 173 µM), the MIC [10] was 250 µg/mL (≈ 173 µM) and the “bacterial cell membrane permeabilization” value [11] was “no permeabilization”. For the same compound, the “activity in the VRSA thigh infection model” value [12] was “inactive”, the MTD [13] was 300 mg/kg and the “terminal half-life (t1/2)” value ([14]; earlier studies) was 30 to 78 min. The AUC ([14]; 10 mg/kg) was 21.8 µg·h/mL, the CL ([14]; 10 mg/kg) was 7.67 mL/min/kg and the Cmax ([14]; 10 mg/kg) was 62.8 µg/mL. For the same compound, the Vd ([14]; 10 mg/kg) was 0.34 L/kg, the t1/2 ([14]; 10 mg/kg) was 31.2 min and the tmax ([14]; 10 mg/kg) was 4.98 min. The AUC ([14]; 300 mg/kg) was 935 µg·h/mL, the CL ([14]; 300 mg/kg) was 5.33 mL/min/kg and the Cmax ([14]; 300 mg/kg) was 1665 µg/mL. The Vd ([14]; 300 mg/kg) was 0.62 L/kg, the t1/2 ([14]; 300 mg/kg) was 81 min and the tmax ([14]; 300 mg/kg) was 4.98 min.
In the case of `CN[C@H](CC(C)C)C(=O)N[C@H]1C(=O)N[C@@H](CC(N)=O)C(=O)N[C@H]2C(=O)NC3C(=O)N[C@H](C(=O)N[C@H](C(=O)NCc4ccc(NC(=N)N)cc4)c4cc(O)cc(O)c4-c4cc3ccc4O)[C@H](O)c3ccc(c(Cl)c3)Oc3cc2cc(c3OC2OC(CO)C(O)[C@H](O)[C@@H]2O[C@H]2CC(C)(N)[C@H](O)[C@H](C)O2)Oc2ccc(cc2Cl)[C@H]1O` (some centres unmarked) [Compound 9, GBn-vancomycin], the “MIC, VanA E. faecalis BM 4166” value [1] is reported as 16 µg/mL (≈ 10 µM), the “MIC, VanA E. faecium ATCC BAA-2317” value [2] is reported as 4 µg/mL (≈ 2.51 µM) and the “MIC, VanA E. faecalis ATCC BAA-2573” value [3] is reported as 4 µg/mL (≈ 2.51 µM). For the same compound, the “MIC, VanA E. faecium TX2465” value [4] was 8 µg/mL (≈ 5.01 µM), the “MIC, VanB E. faecalis ATCC 51299” value [5] was 8 µg/mL (≈ 5.01 µM) and the “MIC, Sensitive S. aureus ATCC 25923” value [6] was 0.25 µg/mL (≈ 0.157 µM). For the same compound, the “MIC, MRSA S. aureus ATCC 43300” value [7] was 0.12 µg/mL (≈ 0.0752 µM), the “MIC, +LTA” value ([8]; E. faecalis BM 4166, LTA 100 μg/mL) was 16 µg/mL (≈ 10 µM) and the “MIC, −LTA” value ([8]; E. faecalis BM 4166, no LTA) was 16 µg/mL (≈ 10 µM). The “MIC, +LTA” value ([9]; E. faecium ATCC BAA-2317, LTA 100 μg/mL) was 4 µg/mL (≈ 2.51 µM) and the “MIC, −LTA” value ([9]; E. faecium ATCC BAA-2317, no LTA (0 μg/mL)) was 4 µg/mL (≈ 2.51 µM).
With `CN[C@H](CC(C)C)C(=O)N[C@H]1C(=O)N[C@@H](CC(N)=O)C(=O)N[C@H]2C(=O)N[C@H]3C(=O)N[C@H](C(=O)N[C@H](C(=O)NCc4ccc(NC(=N)N)cc4)c4cc(O)cc(O)c4-c4cc3ccc4O)[C@H](O)c3ccc(c(Cl)c3)Oc3cc2cc(c3OC2OC(CO)C(O)[C@H](O)C2O[C@H]2CC(C)(NCc3ccc(-c4ccc(Cl)cc4)cc3)[C@H](O)[C@H](C)O2)Oc2ccc(cc2Cl)[C@H]1O` (some centres unmarked) [Compound 19, GBn-CBP-vancomycin] the MIC [5] was 0.04 µg/mL (≈ 0.0223 µM), the MIC ([6]; Staphylococcus aureus, ATCC25923; read-out: MIC, Sensitive S. aureus ATCC 25923) was 0.04 µg/mL (≈ 0.0223 µM) and the MIC [7] was 0.02 µg/mL (≈ 0.0111 µM). For the same compound, the “decrease of antimicrobial activity by added LTA” value [8] was 8 fold, the MIC ([8]; read-out: MIC, +LTA) was 5 µg/mL (≈ 2.78 µM) and the MIC ([8]; read-out: MIC, −LTA) was 0.6 µg/mL (≈ 0.334 µM). The MIC ([9]; read-out: MIC, +LTA) was 2.5 µg/mL (≈ 1.39 µM), the MIC ([9]; read-out: MIC, −LTA) was 0.3 µg/mL (≈ 0.167 µM) and the “bacterial cell membrane permeabilization” value [11] was “strong membrane permeabilization”.
